Source: article PMC9925730, “Controlled sequential in situ self-assembly and disassembly of a fluorogenic cisplatin prodrug for cancer theranostics” (Nature Communications, 2023)
Several values for one entry are separate records, joined by “and”; a condition that tells them apart may be missing. Equal values may be shown once.

Tests used:
[1] = CMC of CyPt and stability of PtIVNPs under different pH conditions; assay type: physicochemical; conditions: for FL intensity at 710 nm: Supplementary Fig. 8 a
Experimental: Co n cen t rati o n (μM) Time (h) Time (h)
Supplementary Figure 8. Evaluation of the CMC and stability of PtIVNPs under different pH conditions. (a) Plots of the fluorescence intensity (λem = 710 nm) versus the concentration of CyPt in Tris buffer determine the CMC of CyPt, which was found to be ~0.3 μM according to the intersection of the two linear fit lines. (b, c) Monitoring of the hydrodynamic size of Pt IVNPs upon incubation under (b) pH = 5.0, and (c) pH = 7.4 (10 μM) for 0-24 h. Date denote mean ± s.d. (n = 3 independent experiments).
(also on this page, place not known: Na 3VO4 ( λem 850 800 Normalized FL intensity Tris Trypsin Caspase-3 Normalized FL intensity 200Diameter (nm) 10 Diameter (nm) 7.4(b) CMC=0.3 00 . . 51.0 Concentration FL intensity (1 X 105) 0 2 1.5 2.0 3.0 (c)(a))

HeLa cells = assay: ICP-OES analysis of Pt in HeLa cells (uptake); assay type: cell-based; conditions: for Amount of Pt / Total amount of Pt: Supplementary Table S1
Experimental: Supplementary Table 1. ICP-OES analysis of Pt in HeLa cells. a Pt drugs Pt element per cell Percentage of Pt element […]
a HeLa cells were untreated or pre-treated with Na3VO4 (10 mM) for 20 min and then incubated with indicated Pt drug (10 μM) for 1 h. Then, the cells were trypsinized, collected, and the cell numbers were counted and digested with trace metal concentrated HNO3 (65~70%) and HCl (36~38%). The amount of Pt element was determined by […]
b Pt per cell represents the average amount of Pt element in one HeLa cell, which was calculated by dividing the total amount of Pt element in cells by the cell number. c Percentage of Pt taken up by cells was calculated by dividing the total amount of Pt elements in cells by the amount of Pt drugs added. Values denote mean ± s.d. (n = 3 independent experiments). […]
The cell […]
lysates were separated according to a reported fragmentation procedure to obtained different cell fractions: pellet sample N (nuclei) was separated by 600 g for 10 min; pellet sample L (lysosomes and mitochondria) separated by 15000 g for 5 min; pellet sample M (plasma membrane) separated 100000g for 60 min and the remaining supernatant was soluble portion cytoplasm named as cell pellet C (cytosol) Pellets N, L, and M were all re-dispersed in 200 μL of D.I. water. Then, the solutions were collected and dropped on a carbon-coated copper grid, followed by freeze-drying respectively. The samples were then examined in a JEM-2800 Transmission Electron […]
Quantitative analysis of Pt in HeLa cells and different subcellular organelles. HeLa […]
cells were seeded in 10-cm dishes at a density of 4×10^6 cells/well and allowed to grow overnight. The cells were incubated with P-CyPt (10 μM), PtIVNPs (10 μM) and CDDP (10 μM) for 1 h, respectively. In P-CyPt + Na3VO4 group, HeLa cells were first incubated with Na3VO4 (10 mM) for 20 min, and then incubated with P-CyPt (10 μM) for another 60 min. After being washed with PBS for three times, the cells were trypsinized, centrifuged and counted. For Pt distribution analysis, the cells were treated with P-CyPt (10 μM) or CDDP (10 μM) for 1 h, and then washed with PBS for three times, followed by incubation with fresh medium for another 24 h. After that, cells were washed gently with 2 mL PBS once. The cells were trypsinized, centrifuged and counted. The cell lysates were separated according to a reported fragmentation procedure to obtained different cell fractions, including N (nuclei), M (plasma membrane), L (lysosomes and mitochondria) and C (cytosol). The Cells and different cell fractions were digested with concentrated HNO3 (65~70%) and HCl (36~38%) at 90 °C for 24 h. The solution was diluted to 5 mL 2% HNO3 and 5% HCl solution, and the concentration of Pt element was measured by ICP-OES, which was further applied to calculate the amount of Pt in cells and subcellular organelles.
Flow cytometry analysis of HeLa cell death. Approximately 2×10^5 cells/well HeLa cells in 2 mL DMEM medium were seeded onto 6-well plates and allowed to grow overnight. The medium was replaced with 1 mL of fresh medium containing P-CyPt (20 μM), PtIVNPs (20 μM) and CDDP (20 μM), respectively. After 2 h incubation, medium was removed and cells were washed with PBS for three times. Then, cells were incubated with fresh medium for another 48 h to induce different levels of apoptosis.
After gentle washing with PBS (×1), the cells were detached from the plates with trypsin (500 μL per well), and the cell pellets were collected after centrifugation at […] at 4 °C for 4 min. After washing with PBS, the pellets were re-suspended in 500 μL PBS buffer and stained with the annexin V-FITC/PI double staining apoptosis detection kit for flow cytometry. All assays were performed according to the manufacturer instructions, and the cell population was analyzed by annexin V-FITC and PI channels. The count number for each flow cytometry analysis was ~5000 to […]

ALP = assay: Dephosphorylated efficacy of P-CyPt towards varying concentrations of ALP (NIR fluorescence); assay type: biochemical; conditions: 250 μM
s.c. HeLa tumors = assay: NIR FL imaging of s.c. HeLa tumors in vivo; design: species or system mice; conditions: i.v. 100 μM, 200 μL
Experimental: (100 μM, in 200 μL saline). Whole body FL images of mice prior to (pre) and at 1 h, 2 h, 4 h, 8 h post injection of P-CyPt or […] acquired on the IVIS Lumina XR III imaging system, using a 660 nm excitation filter and a 750 ± 50 nm emission filter. Each experiment was conducted in three mice. The FL intensities were quantified by the region of interest (ROI) measurement using Living Image Software (4.5.2, PerkinElmer, MA, U.S.A). […] (500 μM, in 200 μL saline). The PA images of the s.c. HeLa tumors in mice prior to (pre), and at 1, 2, 4 h post injection were captured on the Vevo 2100 LAZR system (FUJIFILM VisualSonics), with excitation at 700 and 750 nm. The PA intensities were quantified by the equipped software.

CC1(C)C(/C=C/C2=C3Oc4cc(O)c(Cl)cc4C=C3CCC2)=[N+](CCCNC(=O)[C@@H](Cc2ccccc2)NC(=O)[C@@H](Cc2ccccc2)NC(=O)CCC(=O)[O][Pt]([NH2])([NH2])([OH])([Cl])[Cl])c2ccccc21 [CyPt]
FL intensity at 710 nm ([1]; concentration of CyPt 0.05 μM): 2780 | FL intensity at 710 nm ([1]; concentration of CyPt 0.1 μM): 5650 | FL intensity at 710 nm ([1]; concentration of CyPt 0.2 μM): 11030 | FL intensity at 710 nm ([1]; concentration of CyPt 0.3 μM): 17800 | FL intensity at 710 nm ([1]; concentration of CyPt 0.5 μM): 19720 | FL intensity at 710 nm ([1]; concentration of CyPt 1 μM): 24040 | FL intensity at 710 nm ([1]; concentration of CyPt 2 μM): 35120 | FL intensity at 710 nm ([1]; concentration of CyPt 3 μM): 46610 | critical micellar concentration (CMC) ([1]; Tris buffer, fluorescence at 710 nm): ≈ 0.3 μM | Amount of Pt (HeLa cells; individual samples): 1.96 fmol/cell and 1.6407 fmol/cell and 1.595 fmol/cell | Total amount of Pt (HeLa cells; individual samples): 2.9% and 2.428% and 2.36% | Amount of Pt (HeLa cells; mean of 3 samples): 1.7317 fmol/cell | Total amount of Pt (HeLa cells; mean of 3 samples): 2.563%

CC1(C)C(/C=C/C2=C3Oc4cc(OP(=O)(O)O)c(Cl)cc4C=C3CCC2)=[N+](CCCNC(=O)[C@@H](Cc2ccccc2)NC(=O)[C@@H](Cc2ccccc2)NC(=O)CCC(=O)[O][Pt]([NH2])([NH2])([OH])([Cl])[Cl])c2ccccc21 [P-CyPt]
normalized signal over time (section 'Supplementary Fig. 2c'), mean of 3 (ALP; time 260 min): 0.996 | normalized signal over time (section 'Supplementary Fig. 2c'), mean of 3 (ALP; time 280 min): 0.9965 | normalized signal over time (section 'Supplementary Fig. 2c'), mean of 3 (ALP; time 320 min): 0.9972 | normalized signal over time (section 'Supplementary Fig. 2c'), mean of 3 (ALP; time 440 min): 0.9986 | Pt element per cell (HeLa cells; HeLa cells, Pt drug 10 μM, 1 h, ICP-OES): 24.60 ± 3.5 fmol/cell | Percentage of Pt element taken up by cells (HeLa cells; HeLa cells, Pt drug 10 μM, 1 h, of Pt drug added): 36.9 ± 5.3% | Amount of Pt (HeLa cells; individual samples): 20.8193 fmol/cell and 25.1404 fmol/cell and 27.8508 fmol/cell | Total amount of Pt (HeLa cells; individual samples): 31.255% and 37.742% and 41.811% | Amount of Pt (HeLa cells; mean of 3 samples): 24.6035 fmol/cell | Total amount of Pt (HeLa cells; mean of 3 samples): 36.936% | quantified FL intensity of HeLa tumors (Fig. 4c) (s.c. HeLa tumors; 1 h): 1130000000 | quantified FL intensity of HeLa tumors (Fig. 4c) (s.c. HeLa tumors; 2 h): 1040000000 | quantified FL intensity of HeLa tumors (Fig. 4c) (s.c. HeLa tumors; 4 h): 886000000
